With `CCOc1ncc(C)c2c1[C@H](c1ccc(C#N)cc1OC)C(C(N)=O)=C(C)N2` [finerenone, (4S)-4-(4-cyano-2-methoxyphenyl)-5-ethoxy-2,8-dimethyl-1,4-dihydro-1,6-naphthyridine-3-carboxamide], the “Sudden death, number of subjects” value (AE of death or leading to death by preferred term, finerenone n = 2,993) was found to be 20. For the setting “No SGLT2i use at baseline, column headed Finerenone n = 2,610”, the “All-cause death, Rate (per 100 py)” value is 7.0 per 100 py. Moreover, the “Total worsening heart failure events and death from cardiovascular causes: Rate per 100 patient-yr” value (finerenone N = 3,003) is 14.9 per 100 patient-yr.

Source of the values: patent US20260272899A1 (Bayer Aktiengesellschaft, priority 2024, published 2026).
